Experiment [1] has as its target 447Fv. In words: Fluorescence quenching of 447Fv upon titration with the peptide. Set-up: species or system human. The conditions noted are these: read-out: dissociation constant / binding affinity for 447Fv. On the procedure: The R5A-M1 peptide binds 447Fv with a dissociation constant of 10 nM as determined by fluorescence quenching of 447F upon titration with the peptide, so is within one order of magnitude of the binding affinity of the V3 peptide (˜1 nM).

Experiment [2] deals with 447. In words: Binding affinity of V3 peptides to mAb 447 (method not described). The conditions noted are these: relative to affinity of 447 for V3MN peptide. Set-up: species or system human.
In experiment [3] the test system is R5 and X4 tropic virus strains. The conditions noted are these: against both R5 and X4 tropic virus strains; cited from earlier work.

On to CRKSIHC—GPGRCFYTTGC [R5A-M1], for which the Kd in experiment [1] was found to be 10 nM.
Turning to “TRKSIRIQRGPGRAFVTIGK [V3IIIB, 310-329 gp120IIIB V3 loop peptide expressed in E. coli]”, in experiment [2], the “association constant with 447 compared with the corresponding V3MN peptide” value was “one order of magnitude lower”.
“α-defensin: low molecular weight granulocyte protein, pdb code 1dfn”: the anti-HIV activity result in experiment [3] is given as “anti-HIV activity”.

The record behind these values is US20100278853A1, “C[…] V3 LOOP PEPTIDES AS NOVEL IMMUNOGENS AND RECEPTOR ANTAGONISTS” (YEDA RESEARCH AND DEVELOPMENT CO., LTD., priority 2003, published 2010).
